# Assay results from patent US10294202B2, “Pyrrolidinones as herbicides” (FMC Corporation, priority 2013, dated 2019).
# Key:
# wheat = test: Test A pre-/postemergence herbicide test; type: in vivo, Triticum aestivum; settings: Postemergence; for Plant response rating, Wheat: 125 g ai/ha, 0 to 100 scale, 0 is no effect, 100 is complete control; for Wheat plant response rating (0 to 100 scale, 0 is no effect, 100 is complete control): 500 g ai/ha
# Method in brief: (§1)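 Visual 0–100 ratings (100 = complete control) made about 10 days after treatment, greenhouse-held plants compared with untreated controls. Treatments: postemergence sprays on one- to two-leaf plants (2–10 cm tall) and preemergence directed soil sprays after planting in loam–sand, chemicals formulated in non-phytotoxic solvent containing surfactant.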
# blackgrass = test: Test A postemergence herbicide test; type: in vivo, Alopecurus myosuroides; settings: for Plant response rating, Blackgrass: 125 g ai/ha, 0 to 100 scale, 0 is no effect, 100 is complete control; for Blackgrass plant response rating (0 to 100 scale, 0 is no effect, 100 is complete control): 500 g ai/ha
# Method in brief: (§2)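 Potted in loam soil/sand blend; postemergence application at 1–2 leaf stage (2–10 cm). Greenhouse ~10 d. Visual injury vs untreated, 0–100 scale; 100 = complete control.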
# sedge, umbrella = test: Test B flooded paddy test; type: in vivo, Cyperus difformis; settings: 500 g ai/ha, Flood; scale of 0 to 100 where 0 is no effect and 100 is complete control
# Method in brief: (§3)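 First, plants reach the 2-leaf stage; next, pots are flooded to 3 cm and compound is delivered into the water; finally, after 13 to 15 greenhouse days at constant depth, injury is graded visually from 0 to 100 against controls.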
# galium = test: Test A postemergence herbicide test; type: in vivo, Galium aparine; settings: for Plant response rating, Galium: 125 g ai/ha, 0 to 100 scale, 0 is no effect, 100 is complete control; for Galium plant response rating (0 to 100 scale, 0 is no effect, 100 is complete control): 500 g ai/ha
# Method in brief: as §2
# giant foxtail = test: Test A pre-/postemergence herbicide test; type: in vivo, Setaria faberii; settings: for Plant response rating, Foxtail, Giant: 0 to 100 scale
# Method in brief: as §1
# kochia = test: Test A pre-/postemergence herbicide test; type: in vivo, Kochia scoparia; settings: for Plant response rating, Kochia: 0 to 100 scale
# Method in brief: as §1
# ducksalad = test: Test B flooded paddy test; type: in vivo, Heteranthera limosa; settings: 500 g ai/ha, Flood; scale of 0 to 100 where 0 is no effect and 100 is complete control
# Method in brief: as §3
# ragweed = test: Test A pre-/postemergence herbicide test; type: in vivo, Ambrosia elatior; settings: for Plant response rating, Ragweed: 0 to 100 scale
# Method in brief: as §1
# pigweed = test: Test A pre-/postemergence herbicide test; type: in vivo, Amaranthus retroflexus; settings: for Plant response rating, Pigweed: 0 to 100 scale
# Method in brief: as §1
# barnyardgrass [1] = test: Test A pre-/postemergence herbicide test; type: in vivo, Echinochloa crus-galli
# Method in brief: as §1
# corn = test: Test A pre-/postemergence herbicide test; type: in vivo, Zea mays; settings: Postemergence; for Plant response rating, Corn: 125 g ai/ha, 0 to 100 scale, 0 is no effect, 100 is complete control; for Corn plant response rating (0 to 100 scale, 0 is no effect, 100 is complete control): 500 g ai/ha
# Method in brief: as §1
# rice = test: Test B flooded paddy test; type: in vivo, Oryza sativa; settings: 500 g ai/ha, Flood; scale of 0 to 100 where 0 is no effect and 100 is complete control
# Method in brief: as §3
# barnyardgrass [2] = test: Test B flooded paddy test; type: in vivo, Echinochloa crus-galli; settings: 500 g ai/ha, Flood; scale of 0 to 100 where 0 is no effect and 100 is complete control
# Method in brief: as §3
# ryegrass, Italian = test: Test A pre-/postemergence herbicide test; type: in vivo, Lolium multiflorum; settings: for Plant response rating, Ryegrass, Italian: 0 to 100 scale
# Method in brief: as §1
# [3] = 125 g ai/ha, visual rating, 0 no effect, 100 complete control, approximately 10 days, preemergence
# [4] = Postemergence, 125 g ai/ha, 0 is no effect, 100 is complete control
# [5] = preemergence, 500 g ai/ha, 0 is no effect and 100 is complete control
# [6] = 125 g ai/ha, visual rating, 0 to 100 scale, 0 no effect, 100 complete control, approximately 10 days, preemergence
# [7] = Postemergence, 125 g ai/ha, 0 to 100 scale, 0 is no effect, 100 is complete control
# [8] = preemergence, 500 g ai/ha, 0 to 100 scale (0 no effect, 100 complete control)
smiles,measurement,setting,value
CS(=O)(=O)c1ccccc1NC(=O)C1C(=O)NCC1c1cccc(C(F)(F)F)c1 (racemic) [Compound 160],"Plant response rating, Wheat",wheat,0
same,"Wheat plant response rating (0 to 100 scale, 0 is no effect, 100 is complete control)",wheat,50
same,"Plant response rating, Blackgrass",blackgrass,60
same,"Blackgrass plant response rating (0 to 100 scale, 0 is no effect, 100 is complete control)",blackgrass,70
same,"Plant response rating, Sedge, Umbrella","sedge, umbrella",0
same,"Plant response rating, Galium",galium,60
same,"Galium plant response rating (0 to 100 scale, 0 is no effect, 100 is complete control)",galium,70
same,"Plant response rating, Foxtail, Giant",giant foxtail; [3],80
same,"Plant response rating, Foxtail, Giant",giant foxtail; [4],80
same,"Foxtail, Giant plant response rating (0 to 100 scale, 0 is no effect, 100 is complete control)","giant foxtail; Postemergence, 500 g ai/ha",90
same,"Plant response rating, Foxtail, Giant","giant foxtail; preemergence, 500 g ai/ha",90
same,"Plant response rating, Kochia",kochia; [3],80
same,"Plant response rating, Kochia",kochia; [4],70
same,"Kochia plant response rating (0 to 100 scale, 0 is no effect, 100 is complete control)","kochia; Postemergence, 500 g ai/ha",80
same,"Plant response rating, Kochia",kochia; [5],90
same,"Plant response rating, Ducksalad",ducksalad,100
same,"Plant response rating, Ragweed",ragweed; [3],70
same,"Plant response rating, Ragweed",ragweed; [4],50
same,"Ragweed plant response rating (0 to 100 scale, 0 is no effect, 100 is complete control)","ragweed; Postemergence, 500 g ai/ha",60
same,"Plant response rating, Ragweed",ragweed; [5],80
same,"Plant response rating, Pigweed",pigweed; [3],70
same,"Plant response rating, Pigweed",pigweed; [4],60
same,"Pigweed plant response rating (0 to 100 scale, 0 is no effect, 100 is complete control)","pigweed; Postemergence, 500 g ai/ha",80
same,"Plant response rating, Pigweed",pigweed; [5],90
same,"Plant response rating, Barnyardgrass",barnyardgrass [1]; [6],80
same,"Plant response rating, Barnyardgrass",barnyardgrass [1]; [7],70
same,"Barnyardgrass plant response rating (0 to 100 scale, 0 is no effect, 100 is complete control)","barnyardgrass [1]; Postemergence, 500 g ai/ha",80
same,"Plant response rating, Barnyardgrass",barnyardgrass [1]; [8],90
same,"Plant response rating, Corn",corn,40
same,"Corn plant response rating (0 to 100 scale, 0 is no effect, 100 is complete control)",corn,70
same,"Plant response rating, Rice",rice,10
same,"Plant response rating, Barnyardgrass",barnyardgrass [2],60
same,"Plant response rating, Ryegrass, Italian","ryegrass, Italian; [3]",60
same,"Plant response rating, Ryegrass, Italian","ryegrass, Italian; [4]",0
same,"Ryegrass, Italian plant response rating (0 to 100 scale, 0 is no effect, 100 is complete control)","ryegrass, Italian; Postemergence, 500 g ai/ha",10
same,"Plant response rating, Ryegrass, Italian","ryegrass, Italian; [5]",70
O=C1NCC(c2ccc3c(c2)OC(F)(F)O3)C1C(=O)Nc1ccc(F)c(F)c1F (racemic) [Compound 162],"Plant response rating, Wheat",wheat,0
same,"Wheat plant response rating (0 to 100 scale, 0 is no effect, 100 is complete control)",wheat,50
same,"Plant response rating, Blackgrass",blackgrass,50
same,"Blackgrass plant response rating (0 to 100 scale, 0 is no effect, 100 is complete control)",blackgrass,50
same,"Plant response rating, Sedge, Umbrella","sedge, umbrella",0
same,"Plant response rating, Galium",galium,30
same,"Galium plant response rating (0 to 100 scale, 0 is no effect, 100 is complete control)",galium,70
same,"Plant response rating, Foxtail, Giant",giant foxtail; [3],80
same,"Plant response rating, Foxtail, Giant",giant foxtail; [4],90
same,"Foxtail, Giant plant response rating (0 to 100 scale, 0 is no effect, 100 is complete control)","giant foxtail; Postemergence, 500 g ai/ha",90
same,"Plant response rating, Foxtail, Giant","giant foxtail; preemergence, 500 g ai/ha",90
same,"Plant response rating, Kochia",kochia; [3],50
same,"Plant response rating, Kochia",kochia; [4],40
same,"Kochia plant response rating (0 to 100 scale, 0 is no effect, 100 is complete control)","kochia; Postemergence, 500 g ai/ha",70
same,"Plant response rating, Kochia",kochia; [5],60
same,"Plant response rating, Ducksalad",ducksalad,100
same,"Plant response rating, Ragweed",ragweed; [3],0
same,"Plant response rating, Ragweed",ragweed; [4],0
same,"Ragweed plant response rating (0 to 100 scale, 0 is no effect, 100 is complete control)","ragweed; Postemergence, 500 g ai/ha",40
same,"Plant response rating, Ragweed",ragweed; [5],60
same,"Plant response rating, Pigweed",pigweed; [3],60
same,"Plant response rating, Pigweed",pigweed; [4],20
same,"Pigweed plant response rating (0 to 100 scale, 0 is no effect, 100 is complete control)","pigweed; Postemergence, 500 g ai/ha",70
same,"Plant response rating, Pigweed",pigweed; [5],80
same,"Plant response rating, Barnyardgrass",barnyardgrass [1]; [6],90
same,"Plant response rating, Barnyardgrass",barnyardgrass [1]; [7],70
same,"Barnyardgrass plant response rating (0 to 100 scale, 0 is no effect, 100 is complete control)","barnyardgrass [1]; Postemergence, 500 g ai/ha",90
same,"Plant response rating, Barnyardgrass",barnyardgrass [1]; [8],90
same,"Plant response rating, Corn",corn,30
same,"Corn plant response rating (0 to 100 scale, 0 is no effect, 100 is complete control)",corn,60
same,"Plant response rating, Rice",rice,0
same,"Plant response rating, Barnyardgrass",barnyardgrass [2],75
same,"Plant response rating, Ryegrass, Italian","ryegrass, Italian; [3]",0
same,"Plant response rating, Ryegrass, Italian","ryegrass, Italian; [4]",0
same,"Ryegrass, Italian plant response rating (0 to 100 scale, 0 is no effect, 100 is complete control)","ryegrass, Italian; Postemergence, 500 g ai/ha",50
same,"Plant response rating, Ryegrass, Italian","ryegrass, Italian; [5]",50
